Assay results reported in paper PMC3365763 (The Journal of Biological Chemistry, 2012).

Target: T1, TG2 (transglutaminase-2, transglutaminase type 2) (Homo sapiens, UniProt P21980, K265S)
T1 sequence (P21980 1-687 K265S): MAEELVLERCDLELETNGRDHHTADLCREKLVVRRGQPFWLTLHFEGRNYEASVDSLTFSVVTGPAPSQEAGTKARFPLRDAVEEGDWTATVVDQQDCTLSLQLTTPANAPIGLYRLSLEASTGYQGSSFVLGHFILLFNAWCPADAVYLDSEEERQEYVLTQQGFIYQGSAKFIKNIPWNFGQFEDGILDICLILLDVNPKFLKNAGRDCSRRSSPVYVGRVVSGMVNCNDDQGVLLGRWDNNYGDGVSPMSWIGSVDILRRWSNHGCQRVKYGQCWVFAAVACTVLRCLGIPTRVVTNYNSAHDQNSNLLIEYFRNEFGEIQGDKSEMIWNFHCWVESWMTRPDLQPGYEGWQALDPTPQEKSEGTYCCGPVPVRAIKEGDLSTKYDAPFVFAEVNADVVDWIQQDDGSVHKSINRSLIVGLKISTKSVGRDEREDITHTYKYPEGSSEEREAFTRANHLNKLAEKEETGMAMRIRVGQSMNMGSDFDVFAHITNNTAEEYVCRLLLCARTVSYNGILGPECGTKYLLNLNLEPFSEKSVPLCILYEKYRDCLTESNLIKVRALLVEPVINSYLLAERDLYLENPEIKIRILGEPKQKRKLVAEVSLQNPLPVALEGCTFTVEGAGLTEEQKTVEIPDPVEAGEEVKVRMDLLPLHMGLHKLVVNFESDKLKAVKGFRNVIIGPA
Assay type: biochemical

IC50: 182 ± 17 µM
Structure (SMILES): Nc1nc2c(ncn2[C@@H]2O[C@H](COP(=O)(O)OP(=O)(O)OP(=O)(O)O)[C@@H](O)[C@H]2O)c(=O)[nH]1 [GTP]
